The assay addresses T1, CK1α (Homo sapiens, UniProt P48729+Q96SW2).
T1 construct: expressed in transfected cells
In words: CK1α ePL degradation assay in MDS-L cells. The class given is cell-based. Conditions: MDS-L cells expressing ePL-tagged CK1α; for DC50: concentration giving 50% CK1α degradation vs DMSO control; for Y: lowest measured CK1α level normalized to DMSO control. In a few lines:
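Degradation efficiency is reported as Y value, the minimum CK1α level (percent of DMSO control) across doses. Readout used InCELL Hunter luminescent detection after MDS-L cell exposure at 37° C for stated times, doses 10 μM down to 0.0005 μM in 3-fold steps.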

The structures appear in SMILES notation.

T1 sequence (P48729 whole entry): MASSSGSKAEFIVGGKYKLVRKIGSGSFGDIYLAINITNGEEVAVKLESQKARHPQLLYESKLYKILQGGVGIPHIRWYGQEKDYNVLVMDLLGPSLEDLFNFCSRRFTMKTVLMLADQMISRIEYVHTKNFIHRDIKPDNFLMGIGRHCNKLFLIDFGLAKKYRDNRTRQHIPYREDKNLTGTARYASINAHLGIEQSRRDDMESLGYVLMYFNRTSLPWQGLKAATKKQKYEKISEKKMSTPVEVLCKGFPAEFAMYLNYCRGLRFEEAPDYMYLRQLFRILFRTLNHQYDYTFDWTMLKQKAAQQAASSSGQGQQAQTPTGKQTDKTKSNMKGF
T1 sequence (Q96SW2 whole entry): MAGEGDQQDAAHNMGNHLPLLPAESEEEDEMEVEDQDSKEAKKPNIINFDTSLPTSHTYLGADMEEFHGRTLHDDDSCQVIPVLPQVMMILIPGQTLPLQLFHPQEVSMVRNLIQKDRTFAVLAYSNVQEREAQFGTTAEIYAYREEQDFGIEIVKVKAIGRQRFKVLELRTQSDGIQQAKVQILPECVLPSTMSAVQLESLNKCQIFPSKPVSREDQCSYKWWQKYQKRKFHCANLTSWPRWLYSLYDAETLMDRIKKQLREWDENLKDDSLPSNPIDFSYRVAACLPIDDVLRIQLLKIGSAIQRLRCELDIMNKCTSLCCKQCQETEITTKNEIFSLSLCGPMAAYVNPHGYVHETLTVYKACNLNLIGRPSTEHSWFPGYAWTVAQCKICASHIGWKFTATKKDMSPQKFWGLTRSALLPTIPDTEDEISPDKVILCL
T1 sequence (Q16531 whole entry partner): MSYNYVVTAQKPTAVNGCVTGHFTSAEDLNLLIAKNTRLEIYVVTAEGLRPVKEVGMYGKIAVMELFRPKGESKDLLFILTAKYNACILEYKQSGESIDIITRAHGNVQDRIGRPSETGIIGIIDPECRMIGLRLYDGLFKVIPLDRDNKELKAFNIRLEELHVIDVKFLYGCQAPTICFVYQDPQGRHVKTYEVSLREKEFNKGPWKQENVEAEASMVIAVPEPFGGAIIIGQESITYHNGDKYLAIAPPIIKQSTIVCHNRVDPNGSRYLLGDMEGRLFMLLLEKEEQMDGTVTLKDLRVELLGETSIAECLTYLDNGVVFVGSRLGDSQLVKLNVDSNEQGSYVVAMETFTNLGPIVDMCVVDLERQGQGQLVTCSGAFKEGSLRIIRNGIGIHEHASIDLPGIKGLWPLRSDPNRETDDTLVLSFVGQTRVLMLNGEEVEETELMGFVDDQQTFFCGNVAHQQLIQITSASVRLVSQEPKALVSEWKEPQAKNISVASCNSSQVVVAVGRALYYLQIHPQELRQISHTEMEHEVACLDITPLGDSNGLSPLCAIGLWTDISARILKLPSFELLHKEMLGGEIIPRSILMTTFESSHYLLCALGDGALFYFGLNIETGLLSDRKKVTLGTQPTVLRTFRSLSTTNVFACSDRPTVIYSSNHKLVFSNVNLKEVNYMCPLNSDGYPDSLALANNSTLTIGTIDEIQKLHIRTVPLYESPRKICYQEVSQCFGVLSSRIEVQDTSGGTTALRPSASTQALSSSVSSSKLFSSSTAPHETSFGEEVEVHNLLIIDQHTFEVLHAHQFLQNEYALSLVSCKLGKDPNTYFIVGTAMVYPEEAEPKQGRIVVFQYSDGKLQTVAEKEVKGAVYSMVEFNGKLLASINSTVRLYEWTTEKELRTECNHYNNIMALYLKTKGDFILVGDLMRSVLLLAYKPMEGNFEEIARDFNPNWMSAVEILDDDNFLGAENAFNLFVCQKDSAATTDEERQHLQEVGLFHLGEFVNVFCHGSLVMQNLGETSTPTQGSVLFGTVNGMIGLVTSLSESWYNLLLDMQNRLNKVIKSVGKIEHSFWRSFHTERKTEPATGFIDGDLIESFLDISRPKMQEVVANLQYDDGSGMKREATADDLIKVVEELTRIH

In the case of `O=C1CCC(N2Cc3cc(C(=O)N[C@H](c4ccc(F)cc4F)C(F)(F)F)ccc3C2=O)C(=O)N1` (stereo partly drawn) [Example 80, N-((R)-1-(2,4-difluorophenyl)-2,2,2-trifluoroethyl)-2-(2,6-dioxopiperidin-3-yl)-1-oxoisoindoline-5-carboxamide], the DC50 is < 100 nM and the Y result is listed as “* (a Y value (shown as *) of 0<Y≤20%)”.

Take `CN1CCC([C@@H](NC(=O)c2ccc3c(c2)CN(C2CCC(=O)NC2=O)C3=O)C(F)(F)F)CC1` (stereo partly drawn) [Example 81, 2-(2,6-dioxopiperidin-3-yl)-1-oxo-N-((R)-2,2,2-trifluoro-1-(1-methylpiperidin-4-yl)ethyl)isoindoline-5-carboxamide]: the DC50 was in the range of 500 to 1000 nM and the Y entry was “** (a Y value (shown as**) of 20%<Y≤35%)”.

Regarding `O=C1CCC(N2Cc3cc(C(=O)N[C@H](c4cnccn4)C(F)(F)F)ccc3C2=O)C(=O)N1` (stereo partly drawn) [Example 82, 2-(2,6-dioxopiperidin-3-yl)-1-oxo-N-((R)-2,2,2-trifluoro-1-(pyrazin-2-yl)ethyl)isoindoline-5-carboxamide], the DC50 was 100 to 500 nM and the Y result is given as “** (a Y value (shown as**) of 20%<Y≤35%)”.

Consider `CC1([C@@H](NC(=O)c2ccc3c(c2)CN(C2CCC(=O)NC2=O)C3=O)C(F)(F)F)CCCC1` (stereo partly drawn) [Example 83, 2-(2,6-dioxopiperidin-3-yl)-1-oxo-N-((R)-2,2,2-trifluoro-1-(1-methylcyclopentyl)ethyl)isoindoline-5-carboxamide], for which the half-maximal degradation concentration (DC50) is < 100 nM and the Y entry is reported as “* (a Y value (shown as *) of 0<Y≤20%)”.

Consider `O=C1CCC(N2Cc3cc(C(=O)N[C@H](c4ccccc4)C(F)(F)F)c(F)cc3C2=O)C(=O)N1` (stereo partly drawn) [Example 84, 2-(2,6-dioxopiperidin-3-yl)-6-fluoro-1-oxo-N-((R)-2,2,2-trifluoro-1-phenylethyl)isoindoline-5-carboxamide], for which the 50% degradation concentration (DC50) fell in the range of 100 to 500 nM and the Y result is given as “** (a Y value (shown as**) of 20%<Y≤35%)”.

In the case of `C[C@H](NC(=O)c1cc2c(cc1F)C(=O)N(C1CCC(=O)NC1=O)C2)c1ccccc1` (stereo partly drawn) [Example 85, 2-(2,6-dioxopiperidin-3-yl)-6-fluoro-1-oxo-N-((S)-1-phenylethyl)isoindoline-5-carboxamide], the half-maximal degradation concentration (DC50) lay within 500 to 1000 nM and the Y result is on record as “*** (a Y value (shown as***) of 35%<Y<50%)”.

Consider `O=C1CCC(N2Cc3cc(C(=O)N[C@H](c4ccc(F)cc4OC(F)(F)F)C(F)(F)F)ccc3C2=O)C(=O)N1` (stereo partly drawn) [Example 86, 2-(2,6-dioxopiperidin-3-yl)-1-oxo-N-((R)-2,2,2-trifluoro-1-(4-fluoro-2-(trifluoromethoxy)phenyl)ethyl)isoindoline-5-carboxamide], for which the DC50 was < 100 nM and the Y result is given as “* (a Y value (shown as *) of 0<Y≤20%)”.

`CC(C)(C#N)[C@@H](NC(=O)c1ccc2c(c1)CN(C1CCC(=O)NC1=O)C2=O)C(F)(F)F` (stereo partly drawn) [Example 87, N-((R)-3-cyano-1,1,1-trifluoro-3-methylbutan-2-yl)-2-(2,6-dioxopiperidin-3-yl)-1-oxoisoindoline-5-carboxamide]: the DC50 lay within 100 to 500 nM and the Y result is on record as “** (a Y value (shown as**) of 20%<Y≤35%)”.

As to `O=C1CCC(N2Cc3cc(C(=O)N[C@H](c4ccccc4C(F)(F)F)C(F)(F)F)c(F)cc3C2=O)C(=O)N1` (stereo partly drawn) [Example 88, 2-(2,6-dioxopiperidin-3-yl)-6-fluoro-1-oxo-N-((R)-2,2,2-trifluoro-1-(2-(trifluoromethyl)phenyl)ethyl)isoindoline-5-carboxamide], the DC50 was < 100 nM and the Y entry is on record as “* (a Y value (shown as *) of 0<Y≤20%)”.

As for `O=C1CCC(N2Cc3c(ccc(C(=O)N[C@H](c4ccccc4)C(F)(F)F)c3F)C2=O)C(=O)N1` (stereo partly drawn) [Example 89, 2-(2,6-dioxopiperidin-3-yl)-4-fluoro-1-oxo-N-((R)-2,2,2-trifluoro-1-phenylethyl)isoindoline-5-carboxamide], the DC50 was < 100 nM and the Y entry is on record as “** (a Y value (shown as**) of 20%<Y≤35%)”.

Consider `O=C1CCC(N2Cc3cc(C(=O)N[C@H](c4cccc(C(F)(F)F)c4)C(F)(F)F)c(F)cc3C2=O)C(=O)N1` (stereo partly drawn) [Example 90, 2-(2,6-dioxopiperidin-3-yl)-6-fluoro-1-oxo-N-((R)-2,2,2-trifluoro-1-(3-(trifluoromethyl)phenyl)ethyl)isoindoline-5-carboxamide], for which the half-maximal degradation concentration (DC50) was 100 to 500 nM and the Y result is on record as “** (a Y value (shown as**) of 20%<Y≤35%)”.

For `O=C1CCC(N2Cc3cc(C(=O)N[C@H](c4ccc(Cl)cc4)C(F)(F)F)c(F)cc3C2=O)C(=O)N1` (stereo partly drawn) [Example 91, N-((R)-1-(4-chlorophenyl)-2,2,2-trifluoroethyl)-2-(2,6-dioxopiperidin-3-yl)-6-fluoro-1-oxoisoindoline-5-carboxamide], the half-maximal degradation concentration (DC50) is < 100 nM and the Y entry is on record as “** (a Y value (shown as**) of 20%<Y≤35%)”.

As for `O=C1CCC(N2Cc3cc(C(=O)N[C@H](c4ccc(F)cc4)C(F)(F)F)c(F)cc3C2=O)C(=O)N1` (stereo partly drawn) [Example 92, 2-(2,6-dioxopiperidin-3-yl)-6-fluoro-1-oxo-N-((R)-2,2,2-trifluoro-1-(4-fluorophenyl)ethyl)isoindoline-5-carboxamide], the half-maximal degradation concentration (DC50) fell in the range of 100 to 500 nM and the Y entry was “** (a Y value (shown as**) of 20%<Y≤35%)”.

`O=C1CCC(N2Cc3c(ccc(C(=O)N[C@H](c4ccc(Cl)cc4)C(F)(F)F)c3F)C2=O)C(=O)N1` (stereo partly drawn) [Example 93, N-((R)-1-(4-chlorophenyl)-2,2,2-trifluoroethyl)-2-(2,6-dioxopiperidin-3-yl)-4-fluoro-1-oxoisoindoline-5-carboxamide]: the DC50 was < 100 nM and the Y entry is given as “* (a Y value (shown as *) of 0<Y≤20%)”.

For `CC1([C@@H](NC(=O)c2ccc3c(c2)CN(C2CCC(=O)NC2=O)C3=O)C(F)(F)F)COC1` (stereo partly drawn) [Example 94, 2-(2,6-dioxopiperidin-3-yl)-1-oxo-N-((R)-2,2,2-trifluoro-1-(3-methyloxetan-3-yl)ethyl)isoindoline-5-carboxamide], the 50% degradation concentration (DC50) lay within 100 to 500 nM and the Y entry is given as “** (a Y value (shown as**) of 20%<Y≤35%)”.

As for `CC(C)(CO)[C@@H](NC(=O)c1ccc2c(c1)CN(C1CCC(=O)NC1=O)C2=O)C(F)(F)F` (stereo partly drawn) [Example 95, 2-(2,6-dioxopiperidin-3-yl)-1-oxo-N-((R)-1,1,1-trifluoro-4-hydroxy-3,3-dimethylbutan-2-yl)isoindoline-5-carboxamide], the DC50 fell in the range of 500 to 1000 nM and the Y result is “** (a Y value (shown as**) of 20%<Y≤35%)”.

For the compound `O=C1CCC(N2Cc3c(ccc(C(=O)N[C@H](c4ccc(F)cc4)C(F)(F)F)c3F)C2=O)C(=O)N1` (stereo partly drawn) [Example 96, 2-(2,6-dioxopiperidin-3-yl)-4-fluoro-1-oxo-N-((R)-2,2,2-trifluoro-1-(4-fluorophenyl)ethyl)isoindoline-5-carboxamide], the 50% degradation concentration (DC50) was < 100 nM and the Y entry was “* (a Y value (shown as *) of 0<Y≤20%)”.

Regarding `O=C1CCC(N2Cc3c(ccc(C(=O)N[C@H](c4cccc(C(F)(F)F)c4)C(F)(F)F)c3F)C2=O)C(=O)N1` (stereo partly drawn) [Example 97, 2-(2,6-dioxopiperidin-3-yl)-4-fluoro-1-oxo-N-((R)-2,2,2-trifluoro-1-(3-(trifluoromethyl)phenyl)ethyl)isoindoline-5-carboxamide], the 50% degradation concentration (DC50) lay in the range of 100 to 500 nM and the Y result was “** (a Y value (shown as**) of 20%<Y≤35%)”.

For `O=C1CCC(N2Cc3c(ccc(C(=O)N[C@H](c4ccccc4C(F)(F)F)C(F)(F)F)c3F)C2=O)C(=O)N1` (stereo partly drawn) [Example 98, 2-(2,6-dioxopiperidin-3-yl)-4-fluoro-1-oxo-N-((R)-2,2,2-trifluoro-1-(2-(trifluoromethyl)phenyl)ethyl)isoindoline-5-carboxamide], the DC50 is < 100 nM and the Y result is recorded as “* (a Y value (shown as *) of 0<Y≤20%)”.

On to `O=C1CCC(N2Cc3cc(C(=O)N[C@H](c4ccccc4F)C(F)(F)F)c(F)cc3C2=O)C(=O)N1` (stereo partly drawn) [Example 99, 2-(2,6-dioxopiperidin-3-yl)-6-fluoro-1-oxo-N-((R)-2,2,2-trifluoro-1-(2-fluorophenyl)ethyl)isoindoline-5-carboxamide], for which the DC50 was 100 to 500 nM and the Y result is reported as “** (a Y value (shown as**) of 20%<Y≤35%)”.

`O=C1CCC(N2Cc3c(ccc(C(=O)N[C@H](c4ccccc4F)C(F)(F)F)c3F)C2=O)C(=O)N1` (stereo partly drawn) [Example 100, 2-(2,6-dioxopiperidin-3-yl)-4-fluoro-1-oxo-N-((R)-2,2,2-trifluoro-1-(2-fluorophenyl)ethyl)isoindoline-5-carboxamide]: the half-maximal degradation concentration (DC50) was in the range of 100 to 500 nM and the Y result was “* (a Y value (shown as *) of 0<Y≤20%)”.

In the case of `O=C1CCC(N2Cc3cc(C(=O)N[C@H](c4ccc(O)cc4)C(F)(F)F)ccc3C2=O)C(=O)N1` (stereo partly drawn) [Example 101, 2-(2,6-dioxopiperidin-3-yl)-1-oxo-N-((R)-2,2,2-trifluoro-1-(4-hydroxyphenyl)ethyl)isoindoline-5-carboxamide], the 50% degradation concentration (DC50) is < 100 nM and the Y entry is “* (a Y value (shown as *) of 0<Y≤20%)”.

With `CC(C)Oc1cccc([C@@H](NC(=O)c2ccc3c(c2)CN(C2CCC(=O)NC2=O)C3=O)C(F)(F)F)c1` (stereo partly drawn) [Example 102, 2-(2,6-dioxopiperidin-3-yl)-1-oxo-N-((R)-2,2,2-trifluoro-1-(3-isopropoxyphenyl)ethyl)isoindoline-5-carboxamide], the DC50 was < 100 nM and the Y entry is given as “** (a Y value (shown as**) of 20%<Y≤35%)”.

Regarding `O=C1CC[C@H](N2Cc3cc(C(=O)N[C@H](c4ccc(F)cc4)C(F)(F)F)ccc3C2=O)C(=O)N1` [Example 103, 2-((S)-2,6-dioxopiperidin-3-yl)-1-oxo-N-((R)-2,2,2-trifluoro-1-(4-fluorophenyl)ethyl)isoindoline-5-carboxamide], the half-maximal degradation concentration (DC50) is < 100 nM and the Y entry is on record as “* (a Y value (shown as *) of 0<Y≤20%)”.

Values taken from US11306101B2 (Celgene Corporation, priority 2019, dated 2022).
